Columns and labels:
[1] = tested on: Pieris brassicae; experiment: Biological activity on Pieris brassicae (Lepitoptera), 5-day old larvae; type: in vivo; conditions: 0.1 permill.; 48 hours after treatment
Protocol: Biological activity on Pieris brassicae (Lepitoptera)
Cut cauliflower leaves were sprinkled with an aqueous dispersion of the products under examination. After drying, the leaves were infested with 5-day old larvae. The percentage death rate of the larvae (untreated leaves=0) was determined 48 hours after treatment.

[2] = tested on: Spodoptera littoralis; experiment: Biological activity on Spodoptera littoralis (Lepidoptera), 5-days old larvae; type: in vivo; conditions: 0.1 permill.; 48 hours after treatment
Protocol: Biological activity on Spodoptera littoralis (Lepidoptera)
Cut tobacco leaves were sprinkled with an aqueous dispersion of the products under examination. After drying, the leaves were infested with 5-days old larvae. The percentage mortality of the larvae was determined 48 hours after treatment (untreated leaves, mortality=0).

[3] = tested on: Culex pipiens larvae; experiment: Biological activity on Culex pipiens (diptera) larvae; type: in vivo; conditions: 24 hours after treatment, read-out: percentage of reduction of the infestation (percentage death rate), Culex larvae
Protocol: Biological activity on Culex pipiens (diptera) larvae
Into glasses containing an aqueous dispersion of the products under examination, were introduced third and fourth age mosquito larvae. The percentage death rate of the larvae (glasses containing pure water=0) was determined 24 hours after treatment.

[4] = tested on: Culex pipiens adults; experiment: Biological activity on Culex pipiens (Diptera): adults; type: in vivo; conditions: 0.2 g/m^2, 24 hours after beginning of treatment, read-out: percentage of reduction of the infestation (mortality percentage), Culex ad.
Protocol: Biological activity on Culex pipiens (Diptera): adults
Whatman n°1 paper rectangles were treated uniformly with an acetonic solution of the products under examination. After evaporation of the solvent, each treated paper rectangle was used to line the inside wall of a perspex cylinder (model OMS). The paper-lined perspex cylinder was then closed with a net after having introduced into it 2-3 days old adult females. After one hour from the start of the contact, the insects were transferred into a similar cylinder likewise lined with untreated paper, and were fed with a sugary solution.
The mortality percentage (untreated insects=0) was determined 24 hours after the beginning of the treatment.

[5] = tested on: Musca domestica; experiment: Biological activity on Musca domestica (Diptera), topical application; type: in vivo; conditions: 0.5 γ/ins, 24 hours after treatment
Protocol: Biological activity on Musca domestica (Diptera)
4-days old adults were treated, by topical application by microsyringe, with an acetonic solution of the products under examination.
The mortality percentage (insects treated with acetone only=0) was determined 24 hours after the treatment.

[6] = tested on: Leptinatarsa decomlineata; experiment: Biological activity on Leptinatarsa decomlineata (Coledptera), 4-day old larvae; type: in vivo; conditions: 0.1 permill.; 48 hours after treatment
Protocol: Biological activity on Leptinatarsa decomlineata (Coledptera)
Small, pot-grown potato-plants were infested with 4-day old larvae, and then were sprinkled with an aqueous dispersion of the products under examination. The percentage death rate (untreated plants=0) was determined 48 hours after treatment.

[7] = tested on: Macrosiphum euphorbiae; experiment: Biological activity on Macrosiphum euphorbiae (aphides); type: in vivo; parameters: tested at 0.01 permill; conditions: 0.01 permill.; 24 hours after treatment
Protocol: Biological activity on Macrosiphum euphorbiae (aphides)
Small potato plants grown in pots were infested with adult female aphides and, after several hours, were sprinkled with an aqueous dispersion of the products under examination.
The percentage death rate was determined 24 hours after treatment (untreated plants=0).

[8] = tested on: Tetranychus urticae; experiment: Biological activity on Tetranychus urticae (Acari) adults; type: in vivo; conditions: 0.01 permill.; 24 hours after treatment
Protocol: Biological Activity on Tetranychus urticae (Acari) adults
Small bean leaf discs were infected with adult acari and were then sprinkled with an aqueous dispersion of the products under examination. The percentage of mortality was determined 24 hours after the treatment (untreated discs, mortality=0).

[9] = tested on: Meloidogyne incognita; experiment: Biological activity on Meloidogyne incognita (Nematoda); type: in vivo; conditions: 20 ppm; 21 days after transplanting
Protocol: Biological activity on Meloidogyne incognita (Nematoda)
Aliquot parts of a 1:1 mixture of field soil and sand, infested by Nematoda larvae and eggs, were treated by uniformly mixing same with an aqueous dispersion of the products under examination. The soil was then distributed into plastic pots, and after 5 days into each pot there were transplanted 5 tomato plants about 20 cm high. The survey of the results was carried out 21 days after the transplanting, by observing the roots of the plants extracted from the soil in order to ascertain the degree of infestation by counting the galls that have formed on them. The nematocide activity was expressed as a percentage of reduction of the infestation with respect to the witness plant (small plants transplanted into untreated soil, activity=0).

[10] = tested on: Blatta orientalis; experiment: Biological activity on Blatta orientalis (Ortoptera); type: in vivo; conditions: 0.1 g/m^2, 48 hours after start of treatment, read-out: percentage of reduction of the infestation (percentage mortality), Blatta
Protocol: Biological activity on Blatta orientalis (Ortoptera)
The bottom and side walls of glass beakers were treated uniformly with an acetonic solution of the products under examination. After evaporation of the solvent in each beaker, into the same were then introduced ten, 80-100 days old neanides, whereafter they were closed with a lid of metal netting. After 24 hours from the beginning of the treatment, the insects were transferred into untreated glass beakers, and suitably nourished. The percentage mortality (untreated insects=0) was determined 48 hours after the start of the treatment.

[11] = Toxicity by os on rats; conditions: rat, in vivo, po

Row | SMILES | percentage of reduction of the infestation (percentage death rate of larvae), Pieris B [1] [%] | percentage of reduction of the infestation (percentage mortality of larvae), Spodoptera L [2] [%] | mortality at 0.2 ppm [3] [%] | mortality at 0.2 g/m2 [4] [%] | percentage of reduction of the infestation (mortality percentage), Musca d. [5] [%] | percentage of reduction of the infestation (percentage death rate), Leptinot D. [6] [%] | percentage of reduction of the infestation (percentage death rate), Macrosiph. E. [7] [%] | percentage of reduction of the infestation (percentage of mortality), Tetran U. [8] [%] | percentage of reduction of the infestation, Meloidog. I. [9] [%] | mortality at 0.1 g/m2 [10] [%] | LD50 [11] [mg/kg]
1 | CCn1nc(Cl)cc1OP(=S)(OC)OC [Compound 21] | 100 | 70 | 100 | 100 | 100 | 100 | 100 | 100 | 100 | 100 | 
2 | CCOP(=S)(OC)Oc1cc(Cl)n(-c2ccc([N+](=O)[O-])cc2)n1 (stereo not shown) [Compound 51] | 100 | 100 | 100 | 0 | 100 | 85 | 51 | 94 | 82 |  | 
3 | CCOP(=S)(OCC)Oc1cc(Cl)nn1Cc1ccccc1 [Compound 29] | 100 | 100 | 100 | 5 | 100 | 100 | 60 | 100 | 59 | 100 | 
4 | CCOP(=S)(OCC)Oc1cc(Cl)nn1CCC#N [Compound 7] | 100 | 100 | 100 | 70 | 100 | 100 | 100 | 100 | 100 | 100 | 
5 | CCOP(=S)(OCC)Oc1cc(Cl)nn1CC [Compound 3] | 100 | 82 | 100 | 100 | 100 | 100 | 98 | 100 | 96 | 100 | 
6 | CCOP(=S)(OCC)Oc1cc(Cl)nn1-c1ccccc1 [Compound 2] | 100 | 100 | 100 | 100 | 100 | 97 | 40 |  |  | 100 | 33
7 | CCOP(=S)(NC(C)C)Oc1cc(Cl)nn1C (stereo not shown) [Compound 49] | 100 | 15 | 100 | 100 | 100 | 100 | 81 | 63 |  | 100 | 
8 | CCOP(=S)(OCC)Oc1cc(Cl)n[nH]1 [Compound 11] |  |  |  |  |  |  |  |  |  |  | 70
9 | CCOP(=S)(OCC)Oc1cc(Cl)n(-c2ccc([N+](=O)[O-])cc2)n1 [Compound 52] | 100 | 95 | 100 | 0 | 100 | 37 | 54 | 96 | 96 | 100 | 
10 | CCOP(=S)(OCC)Oc1cc(C=C(Cl)Cl)nn1CCC#N [Compound 9] | 100 | 100 | 100 | 0 | 100 | 100 | 85 | 85 |  | 100 | 
11 | CCOP(=S)(OC)Oc1cc(Cl)nn1CC (stereo not shown) [Compound 24] | 100 | 90 | 100 | 100 | 100 | 100 | 96 | 100 | 62 | 100 | 

— patent publication US4459294A, “Phosphoric and thiophosphoric esters of 5(3)-hydroxypyrazoles exerting an insecticidal action” (priority 1977, dated 1984)
